Laboratory results as given in PubChem BioAssay AID1963986 (Molecular Pharmacology Branch, DTP, NCI, 2024).
pIC50: −log10 of the molar value.

Tested on: 171881-019-R-J1-PDC tumor spheroid viability
Assay: Anticancer human tumor 171881-019-R-J1-PDC patient-derived invasive breast carcinoma cell line growth inhibition [PI3K]
Conditions: spheroids with HUVEC and MSC; for pIC50: curve of first compound; for viability, T/C: stronger effect = lower value
How it was run: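 Tumor cells were combined with HUVEC and MSCs into spheroids, then dosed with PI3K-inhibitor combinations over half-log ranges capped near clinical Cmax or 10 microM.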

[1] = second compound 0.00316 µM, first compound 0.0316 µM
[2] = second compound 0.00316 µM, first compound 0.1 µM
[3] = second compound 0.01 µM, first compound 0.0316 µM
[4] = second compound 0.01 µM, first compound 0.1 µM
[5] = second compound 0.0316 µM, first compound 0.0316 µM
[6] = second compound 0.0316 µM, first compound 0.1 µM
[7] = second compound 0.1 µM, first compound 0.0316 µM
[8] = second compound 0.1 µM, first compound 0.1 µM
[9] = second compound 0.316 µM, first compound 0.0316 µM
[10] = second compound 0.316 µM, first compound 0.1 µM
[11] = second compound 1 µM, first compound 0.0316 µM
[12] = second compound 1 µM, first compound 0.1 µM
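Note: spheroids exposed to compound for 7 days before viability read.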
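Throughout, for viability, T/C: 100% = DMSO vehicle-treated spheroids.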

CC(C)n1nc(-c2ccc3oc(N)nc3c2)c2c(N)ncnc21 + CC(Nc1ccc2c(c1)OCCn1cc(N3C(=O)OCC3C(F)F)nc1-2)C(N)=O
pIC50 (second compound 0.00316 µM): 8.04 | pIC50 (second compound 0.01 µM): 8.40 | pIC50 (second compound 0.0316 µM): 8.87 | pIC50 (second compound 0.1 µM): > 9.50 | pIC50 (second compound 0.316 µM): > 9.50 | pIC50 (second compound 1 µM): > 9.50 | viability, T/C (second compound 0.00316 µM, first compound 0.000316 µM): 80.2% | viability, T/C (second compound 0.00316 µM, first compound 0.001 µM): 76.2% | viability, T/C (second compound 0.00316 µM, first compound 0.00316 µM): 69.5% | viability, T/C (second compound 0.00316 µM, first compound 0.01 µM): 49.4% | viability, T/C [1]: 17.4% | viability, T/C [2]: 4.49% | viability, T/C (second compound 0.01 µM, first compound 0.000316 µM): 71.7% | viability, T/C (second compound 0.01 µM, first compound 0.001 µM): 69.9% | viability, T/C (second compound 0.01 µM, first compound 0.00316 µM): 49.7% | viability, T/C (second compound 0.01 µM, first compound 0.01 µM): 38.5% | viability, T/C [3]: 12.6% | viability, T/C [4]: 4.27% | viability, T/C (second compound 0.0316 µM, first compound 0.000316 µM): 58.5% | viability, T/C (second compound 0.0316 µM, first compound 0.001 µM): 50.9% | viability, T/C (second compound 0.0316 µM, first compound 0.00316 µM): 42.9% | viability, T/C (second compound 0.0316 µM, first compound 0.01 µM): 25.3% | viability, T/C [5]: 8.97% | viability, T/C [6]: 3.7% | viability, T/C (second compound 0.1 µM, first compound 0.000316 µM): 43.2% | viability, T/C (second compound 0.1 µM, first compound 0.001 µM): 38.6% | viability, T/C (second compound 0.1 µM, first compound 0.00316 µM): 28.8% | viability, T/C (second compound 0.1 µM, first compound 0.01 µM): 13.3% | viability, T/C [7]: 6.55% | viability, T/C [8]: 3.2% | viability, T/C (second compound 0.316 µM, first compound 0.000316 µM): 26.6% | viability, T/C (second compound 0.316 µM, first compound 0.001 µM): 25.2% | viability, T/C (second compound 0.316 µM, first compound 0.00316 µM): 17.7% | viability, T/C (second compound 0.316 µM, first compound 0.01 µM): 8.83% | viability, T/C [9]: 4.95% | viability, T/C [10]: 2.96% | viability, T/C (second compound 1 µM, first compound 0.000316 µM): 18.8% | viability, T/C (second compound 1 µM, first compound 0.001 µM): 19.5% | viability, T/C (second compound 1 µM, first compound 0.00316 µM): 12.8% | viability, T/C (second compound 1 µM, first compound 0.01 µM): 6.3% | viability, T/C [11]: 4.24% | viability, T/C [12]: 2.61%

CC1(C)CCC(CN2CCN(c3ccc(C(=O)NS(=O)(=O)c4ccc(NCC5CCOCC5)c([N+](=O)[O-])c4)c(Oc4cnc5[nH]ccc5c4)c3)CC2)=C(c2ccc(Cl)cc2)C1 + CC(Nc1ccc2c(c1)OCCn1cc(N3C(=O)OCC3C(F)F)nc1-2)C(N)=O
pIC50 (second compound 0.00316 µM): 5.43 | pIC50 (second compound 0.01 µM): 5.57 | pIC50 (second compound 0.0316 µM): 5.80 | pIC50 (second compound 0.1 µM): > 7.50 | pIC50 (second compound 0.316 µM): > 7.50 | pIC50 (second compound 1 µM): > 7.50 | viability, T/C [1]: 83% | viability, T/C [2]: 73.7% | viability, T/C (second compound 0.00316 µM, first compound 0.316 µM): 91.5% | viability, T/C (second compound 0.00316 µM, first compound 1 µM): 88.1% | viability, T/C (second compound 0.00316 µM, first compound 3.16 µM): 55.9% | viability, T/C (second compound 0.00316 µM, first compound 10 µM): 15% | viability, T/C [3]: 79.2% | viability, T/C [4]: 87.3% | viability, T/C (second compound 0.01 µM, first compound 0.316 µM): 76.8% | viability, T/C (second compound 0.01 µM, first compound 1 µM): 72.5% | viability, T/C (second compound 0.01 µM, first compound 3.16 µM): 46.5% | viability, T/C (second compound 0.01 µM, first compound 10 µM): 13.9% | viability, T/C [5]: 55.9% | viability, T/C [6]: 56.8% | viability, T/C (second compound 0.0316 µM, first compound 0.316 µM): 61.6% | viability, T/C (second compound 0.0316 µM, first compound 1 µM): 55.3% | viability, T/C (second compound 0.0316 µM, first compound 3.16 µM): 41.2% | viability, T/C (second compound 0.0316 µM, first compound 10 µM): 10.3% | viability, T/C [7]: 41.6% | viability, T/C [8]: 41.2% | viability, T/C (second compound 0.1 µM, first compound 0.316 µM): 40.6% | viability, T/C (second compound 0.1 µM, first compound 1 µM): 43.4% | viability, T/C (second compound 0.1 µM, first compound 3.16 µM): 36.5% | viability, T/C (second compound 0.1 µM, first compound 10 µM): 7.86% | viability, T/C [9]: 28.6% | viability, T/C [10]: 27.1% | viability, T/C (second compound 0.316 µM, first compound 0.316 µM): 28.5% | viability, T/C (second compound 0.316 µM, first compound 1 µM): 28.3% | viability, T/C (second compound 0.316 µM, first compound 3.16 µM): 29.5% | viability, T/C (second compound 0.316 µM, first compound 10 µM): 5% | viability, T/C [11]: 20.9% | viability, T/C [12]: 20.9% | viability, T/C (second compound 1 µM, first compound 0.316 µM): 22% | viability, T/C (second compound 1 µM, first compound 1 µM): 23.4% | viability, T/C (second compound 1 µM, first compound 3.16 µM): 22% | viability, T/C (second compound 1 µM, first compound 10 µM): 6.08%
